Legend:
[1] = system: H22 cell hepatoma ascites model; experiment: Survival of BALB/c mouse H22 hepatoma ascites model; format: in vivo; conditions: until the 34th (H22-MPs), 33th (Ery-MPs), 31th (methotrexate) day; 10 mice per group
Procedure: 3) On the first day, 5×10^4 H22 cells were intraperitoneally inoculated into BALB/c mice, and a total of 40 BALB/c mice were injected to obtain the one with H22 cell hepatoma ascites model, which were randomly divided into four groups equally, namely experimental group 1, experimental group 2, experimental group 3 and control group. The BALB/c mice in experimental group 1 were intraperitoneally injected with H22-MPs (MTX); the BALM mice in experimental group 2 were intraperitoneally injected with Ery-MPs (MTX); the BALB/c mice in experimental group 3 were intraperitoneally injected with methotrexate at a dose of 1 μg/g; and the BALB/c mice in the control group were intraperitoneally injected with 200 μL of 0.9% (g/ml) physiological saline.
4) From the 4th day, according to the same injection procedure, the experimental groups were injected with H22-MPs (MTX), Ery-MPs (MTX) and chemotherapy drug (methotrexate) once a day for 7 consecutive days, respectively, while the control group was injected with 200 μL 0.9% (g/ml) physiological saline once a day for 7 consecutive days. From the 11th day, all of the BALB/c mice were fed normally, and the survival status of the BALB/c mice in each group was observed.

[2] = Toxicity and side effect test in BALB/c mice (GPT, serum creatinine, APTT, PT); format: in vivo; conditions: tail vein, once a day for 7 days; blood on 8th day
Procedure: 3) The prepared H22-MPs (MTX) was injected into 8 BALB/c mice via tail vein respectively, as the experimental group 1; the prepared Ery-MPs (MTX) was injected into 8 BALM mice via tail vein respectively, as the experimental group 2; 8 mice BALB/c mice were injected with methotrexate via tail vein at a dose of 1 μg/g, as the experimental group 3; 8 mice BALB/c mice were injected with 0.9% (g/ml) physiological saline via tail vein, as the control group.
4) On the 8th day, venous blood was taken from the mice in the experimental group 1, the experimental group 2, the experimental group 3 and the control group, and the content of glutamic-pyruvic transaminase, creatinine in serum and the content of APTT and PT in the blood were detected. The body weights of the mice were weighed.

[3] = system: Lewis cell lung cancer model; conditions: tail vein, once a day for 10 days from 5th day
Procedure: 3) On the 1st day, 1×10^6 Lewis cells were inoculated into a C57BL/6 mouse via tail vein, and a total of 32 C57BL/6 mice were injected to obtain the C57BL/6 mice of Lewis cell lung cancer model which were randomly divided into four groups equally, namely, experiment group 1, experiment group 2, experiment group 3 and control group.
From the 15th day, all of the C57BL/6 mice were fed normally, and the survival status of the C57BL/6 mice in each group was observed.

CN(Cc1cnc2nc(N)nc(N)c2n1)c1ccc(C(=O)N[C@@H](CCC(=O)O)C(=O)O)cc1 [methotrexate]
total mice died [1]: 9 mice
average activated partial prothrombin time (APTT) [2]: 16.5 s
average plastin time (PT) [2]: 13.13 s
average serum creatinine content [2]: 26.13 µmol/L
therapeutic effect on lung cancer in mice (survival curve) [3]: much poorer than that of Ery-MPs (MTX) and LLC-MPs (MTX)
